One experiment has as its target CDK5 (Homo sapiens, UniProt Q00535). Put plainly: Kinobeads competition binding, HL60 cell lysate. Also noted: endogenous in cells; host or cells: HL60 cells. The following applies: 10 μM free compound. As for the experimental part:
(§1) To one aliquot of cell lysate 10 μM of the free compound (FIG. 3, CZC31326) was added and allowed to bind to proteins in the lysate. Then the affinity matrix with the immobilized compound (Example 1) was added to capture proteins that were not interacting with the previously added free compound. Beads were separated from the lysate and bead bound proteins were eluted in SDS sample buffer and subsequently separated by SDS-Polyacrylamide gel electrophoresis (FIG. 4). Suitable gel bands were cut out and subjected to in-gel proteolytic digestion with trypsin. The second lysate aliquot was processed identically, however no free compound was added (DMSO solvent control). Peptides originating from samples 1 and 2 were labeled with iTRAQ reagents (iTRAQ 114 and iTRAQ 117) and the combined samples were analyzed with a nano-flow liquid chromatography system coupled online to a tandem mass spectrometer (LC-MS/MS) experiment followed by iTRAQ reporter ion quantification in the MS/MS spectra (Ross et al., 2004. Mol. Cell. Proteomics 3(12):1154-1169). Further experimental protocols can be found in WO2006/134056 and a previous publication (Bantscheff et al., 2007. Nature Biotechnology 25, 1035-1044). Sepharose-beads with the immobilized compound (100 μl beads per pull-down experiment) were equilibrated in lysis buffer and incubated with a cell lysate sample containing 50 mg of protein on an end-over-end shaker (Roto Shake Genie, Scientific Industries Inc.) for 2 hours at 4° C. Beads were collected, transferred to Mobicol-columns (MoBiTech 10055) and washed with 10 ml lysis buffer containing 0.4% NP40 detergent, followed by 5 ml lysis buffer containing 0.2% detergent. To elute bound proteins, 60 μl 2×SDS sample buffer was added to the column. The column was incubated for 30 minutes at 50° C. and the eluate was transferred to a siliconized microfuge tube by centrifugation. Proteins were then alkylated with 108 mM iodoacetamid. Proteins were then separated by SDS-Polyacrylamide electrophoresis (SDS-PAGE). The peptide extracts of samples treated with 10 μM of free compound (CZC31326) and the solvent control (0.5% DMSO) were treated with different variants of the isobaric tagging reagent (iTRAQ Reagents Multiplex Kit, part number 4352135, Applied Biosystems, Foster City, Calif., USA). The iTRAQ reagents are a set of multiplexed, amine-specific, stable isotope reagents that can label peptides on amino groups in up to four different biological samples enabling simultaneous identification and quantitation of peptides. The iTRAQ reagents were used according to instructions provided by the manufacturer. The samples were resuspended in 10 μl 50 mM TEAB solution, pH 8.5 and 10 μl ethanol were added. The iTRAQ reagent was dissolved in 120 μl ethanol and 10 μl of reagent solution were added to the sample. The labeling reaction was performed at room temperature for one hour on a horizontal shaker and stopped by adding 5 μl of 100 mM TEAB and 100 mM glycine in water. The two labeled sampled were then combined, dried in a vacuum centrifuge and resuspended in 10 μl of 0.1% formic acid in water. Relative protein quantitation was performed using peak areas of iTRAQ reporter ion signals essentially as described in an earlier publication (Bantscheff et al., 2007. Nature Biotechnology 25, 1035-1044).

For a further experiment, the target named is T1, TBK1 (Homo sapiens, UniProt Q9UHD2).
T1 sequence (Q9UHD2 1-729): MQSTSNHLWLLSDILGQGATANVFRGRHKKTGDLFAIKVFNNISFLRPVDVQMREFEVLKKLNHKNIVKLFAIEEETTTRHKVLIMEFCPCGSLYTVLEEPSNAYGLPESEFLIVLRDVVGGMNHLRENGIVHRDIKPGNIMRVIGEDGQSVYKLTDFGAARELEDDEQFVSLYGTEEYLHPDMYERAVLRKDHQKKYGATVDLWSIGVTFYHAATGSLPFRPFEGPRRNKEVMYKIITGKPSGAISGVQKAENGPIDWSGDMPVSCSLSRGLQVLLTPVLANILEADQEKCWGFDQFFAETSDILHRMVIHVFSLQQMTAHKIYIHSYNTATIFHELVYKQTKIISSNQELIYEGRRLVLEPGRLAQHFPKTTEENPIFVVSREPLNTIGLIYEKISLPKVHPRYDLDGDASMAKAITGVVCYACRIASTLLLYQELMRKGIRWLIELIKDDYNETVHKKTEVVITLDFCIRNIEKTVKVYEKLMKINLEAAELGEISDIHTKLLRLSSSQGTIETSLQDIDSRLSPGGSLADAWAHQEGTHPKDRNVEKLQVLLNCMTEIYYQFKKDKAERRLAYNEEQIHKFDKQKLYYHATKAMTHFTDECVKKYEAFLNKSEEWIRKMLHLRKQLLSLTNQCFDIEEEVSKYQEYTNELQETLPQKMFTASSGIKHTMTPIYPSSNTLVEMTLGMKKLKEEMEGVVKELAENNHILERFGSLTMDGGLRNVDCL
Put plainly: Kinobeads competition binding, L-363 cell lysate. Also noted: capturing and identification of kinases from L-363 cell lysate; endogenous in cells; host or cells: L-363 (treated with MG132 before harvest). As to conditions: 10 μM free compound, L-363 lysate. As for the experimental part: To one aliquot of cell lysate 10 μM of the free compound (FIG. 3, CZC31326) was added and allowed to bind to proteins in the lysate. Then the affinity matrix with the immobilized compound was added to capture proteins that were not interacting with the previously added free compound. Beads were separated from the lysate and bead bound proteins were eluted in SDS sample buffer and subsequently separated by SDS-Polyacrylamide gel electrophoresis (FIG. 8). Suitable gel bands were cut out and subjected to in-gel proteolytic digestion with trypsin. The second lysate aliquot was processed identically, however no free compound was added (DMSO solvent control). Peptides originating from samples 1 and 2 were labeled with iTRAQ reagents (iTRAQ 114 and iTRAQ 117) and the combined samples were analyzed with a nano-flow liquid chromatography system coupled online to a tandem mass spectrometer (LC-MS/MS) experiment followed by iTRAQ reporter ion quantification in the MS/MS spectra as described in Example 2.
For this experiment the human plasma cell leukaemia line L-363 was used (German Collection of Microorganisms and Cell Cultures, DSMZ number ACC49, Braunschweig, Germany). Cells were treated for three hours with 20 μM of the proteasome inhibitor MG132 (Z-Leu-Leu-Leu-al, Sigma C2211) prior to cell harvesting.

The target of another experiment is LRRK2 (Homo sapiens, UniProt Q5S007). Put plainly: Kinobeads competition binding, HL60 cell lysate. As to conditions: 10 μM free compound. Also on record: Identified kinases with CZC31326 from HL60 lysate; endogenous in cells; host or cells: HL60. As for the experimental part: as §1, with “The iTRAQ reagents were used according to instructions provided by the manufacturer. The samples were resuspended in 10 μl 50 mM TEAB solution, pH 8.5 and 10 μl ethanol were added. The iTRAQ reagent was dissolved in 120 μl ethanol and 10 μl of reagent solution were added to the sample. The labeling reaction was performed at room temperature for one hour on a horizontal shaker and stopped by adding 5 μl of 100 mM TEAB and 100 mM glycine in water. The two labeled sampled were then combined, dried in a vacuum centrifuge and resuspended in 10 μl of 0.1% formic acid in water.” left out

In the next experiment the target is MAP2K3 (Homo sapiens, UniProt P46734). The experiment is described as follows: Kinobeads competition binding, HL60 cell lysate. The following applies: 10 μM free compound. Also on record: Identified kinases with CZC31326 from HL60 lysate; endogenous in cells; host or cells: HL60. As for the experimental part:
as §1, with “The iTRAQ reagents were used according to instructions provided by the manufacturer. The samples were resuspended in 10 μl 50 mM TEAB solution, pH 8.5 and 10 μl ethanol were added. The iTRAQ reagent was dissolved in 120 μl ethanol and 10 μl of reagent solution were added to the sample. The labeling reaction was performed at room temperature for one hour on a horizontal shaker and stopped by adding 5 μl of 100 mM TEAB and 100 mM glycine in water. The two labeled sampled were then combined, dried in a vacuum centrifuge and resuspended in 10 μl of 0.1% formic acid in water.” left out

Inhibition data for one compound are collected here from US20120270237A9, “METHODS FOR THE IDENTIFICATION OF KINASE INTERACTING MOLECULES AND FOR THE PURIFICATION OF KINASE PROTEINS” (Cellzone AG, priority 2009, published 2012).

Structures are written as SMILES.

In general, inhibition refers to the relative decrease from the control value, in per cent. A higher inhibition goes with strong suppression.

Sequence of LRRK2 (Q5S007 whole entry): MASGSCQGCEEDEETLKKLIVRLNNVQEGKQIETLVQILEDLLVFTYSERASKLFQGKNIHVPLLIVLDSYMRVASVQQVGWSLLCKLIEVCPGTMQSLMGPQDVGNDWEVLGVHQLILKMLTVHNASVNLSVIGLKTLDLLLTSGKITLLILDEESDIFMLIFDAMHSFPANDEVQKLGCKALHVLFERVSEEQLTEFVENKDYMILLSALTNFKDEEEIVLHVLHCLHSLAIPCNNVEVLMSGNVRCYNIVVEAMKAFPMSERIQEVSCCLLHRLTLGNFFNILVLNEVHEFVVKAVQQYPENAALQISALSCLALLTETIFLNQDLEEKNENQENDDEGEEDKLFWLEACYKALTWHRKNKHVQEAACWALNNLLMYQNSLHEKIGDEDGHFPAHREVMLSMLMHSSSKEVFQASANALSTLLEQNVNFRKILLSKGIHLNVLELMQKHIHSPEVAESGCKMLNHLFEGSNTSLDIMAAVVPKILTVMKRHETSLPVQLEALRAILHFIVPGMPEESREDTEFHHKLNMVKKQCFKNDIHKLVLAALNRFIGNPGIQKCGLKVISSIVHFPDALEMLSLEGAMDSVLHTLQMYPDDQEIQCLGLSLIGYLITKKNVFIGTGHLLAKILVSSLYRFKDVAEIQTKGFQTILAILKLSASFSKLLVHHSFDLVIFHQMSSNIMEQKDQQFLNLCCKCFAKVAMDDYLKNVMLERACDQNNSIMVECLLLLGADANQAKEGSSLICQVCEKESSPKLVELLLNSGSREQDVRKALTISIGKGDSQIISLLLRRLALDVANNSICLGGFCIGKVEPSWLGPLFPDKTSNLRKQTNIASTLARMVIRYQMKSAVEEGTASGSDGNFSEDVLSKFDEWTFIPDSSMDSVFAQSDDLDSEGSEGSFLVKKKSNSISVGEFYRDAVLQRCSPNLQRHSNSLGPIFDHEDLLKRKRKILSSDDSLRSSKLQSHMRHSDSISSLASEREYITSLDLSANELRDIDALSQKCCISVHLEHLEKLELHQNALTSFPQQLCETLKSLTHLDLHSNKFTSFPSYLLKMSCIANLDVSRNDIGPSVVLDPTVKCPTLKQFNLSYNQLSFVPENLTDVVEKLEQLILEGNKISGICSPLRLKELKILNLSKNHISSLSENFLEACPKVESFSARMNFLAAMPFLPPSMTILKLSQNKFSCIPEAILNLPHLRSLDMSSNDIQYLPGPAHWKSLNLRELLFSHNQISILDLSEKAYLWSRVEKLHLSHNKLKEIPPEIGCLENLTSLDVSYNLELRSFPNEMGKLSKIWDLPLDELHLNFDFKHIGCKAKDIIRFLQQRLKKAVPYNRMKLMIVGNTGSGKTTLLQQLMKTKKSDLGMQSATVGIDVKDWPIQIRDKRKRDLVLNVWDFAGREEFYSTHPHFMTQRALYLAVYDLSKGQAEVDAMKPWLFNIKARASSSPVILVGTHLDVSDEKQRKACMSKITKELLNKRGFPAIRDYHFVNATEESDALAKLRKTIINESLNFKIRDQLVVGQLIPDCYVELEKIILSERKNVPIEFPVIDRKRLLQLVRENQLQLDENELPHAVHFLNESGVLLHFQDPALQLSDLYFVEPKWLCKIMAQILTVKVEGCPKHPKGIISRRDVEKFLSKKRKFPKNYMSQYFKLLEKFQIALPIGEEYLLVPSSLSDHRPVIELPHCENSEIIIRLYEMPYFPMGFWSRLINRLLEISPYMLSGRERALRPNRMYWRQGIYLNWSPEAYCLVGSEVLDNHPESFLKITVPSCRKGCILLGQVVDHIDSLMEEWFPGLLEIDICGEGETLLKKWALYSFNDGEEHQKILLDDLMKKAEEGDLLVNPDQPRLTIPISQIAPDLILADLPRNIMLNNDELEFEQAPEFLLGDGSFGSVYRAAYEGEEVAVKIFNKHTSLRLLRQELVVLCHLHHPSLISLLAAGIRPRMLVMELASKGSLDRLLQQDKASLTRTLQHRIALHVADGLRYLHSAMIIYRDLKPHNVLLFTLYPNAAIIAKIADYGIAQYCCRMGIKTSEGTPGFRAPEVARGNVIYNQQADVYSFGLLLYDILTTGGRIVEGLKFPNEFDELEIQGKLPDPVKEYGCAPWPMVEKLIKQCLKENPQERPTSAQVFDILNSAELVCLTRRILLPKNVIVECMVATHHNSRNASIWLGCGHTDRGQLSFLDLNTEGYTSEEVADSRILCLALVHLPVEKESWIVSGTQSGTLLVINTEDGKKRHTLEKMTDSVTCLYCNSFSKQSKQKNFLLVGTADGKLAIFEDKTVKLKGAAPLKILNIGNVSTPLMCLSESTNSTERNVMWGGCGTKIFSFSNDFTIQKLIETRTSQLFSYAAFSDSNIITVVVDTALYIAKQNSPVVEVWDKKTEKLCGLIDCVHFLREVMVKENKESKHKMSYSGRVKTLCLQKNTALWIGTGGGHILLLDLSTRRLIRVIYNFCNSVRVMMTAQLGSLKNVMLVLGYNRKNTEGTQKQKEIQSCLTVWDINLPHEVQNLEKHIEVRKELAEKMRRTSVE
Sequence of MAP2K3 (P46734 whole entry): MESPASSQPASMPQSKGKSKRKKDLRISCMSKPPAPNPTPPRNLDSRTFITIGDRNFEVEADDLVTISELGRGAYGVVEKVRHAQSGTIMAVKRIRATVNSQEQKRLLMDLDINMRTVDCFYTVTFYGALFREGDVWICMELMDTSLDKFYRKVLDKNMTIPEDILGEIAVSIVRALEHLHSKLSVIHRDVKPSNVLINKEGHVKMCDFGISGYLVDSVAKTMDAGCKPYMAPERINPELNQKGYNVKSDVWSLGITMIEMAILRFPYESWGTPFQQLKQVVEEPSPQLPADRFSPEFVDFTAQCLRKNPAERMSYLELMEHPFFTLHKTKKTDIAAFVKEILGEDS
Sequence of CDK5 (Q00535 whole entry): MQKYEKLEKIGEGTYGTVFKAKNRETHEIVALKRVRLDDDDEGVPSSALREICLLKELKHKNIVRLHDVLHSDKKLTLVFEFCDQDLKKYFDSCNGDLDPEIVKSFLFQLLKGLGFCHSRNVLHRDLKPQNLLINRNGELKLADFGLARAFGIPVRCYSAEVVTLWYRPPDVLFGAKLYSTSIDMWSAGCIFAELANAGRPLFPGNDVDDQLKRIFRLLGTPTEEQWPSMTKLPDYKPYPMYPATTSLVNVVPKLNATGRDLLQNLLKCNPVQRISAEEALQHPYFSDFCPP

With `CS(=O)(=O)Nc1ccccc1Nc1nc(Nc2cccc(OCCN)c2)ncc1Cl` [CZC31326, N-(2-(2-(3-(2-aminoethoxy)phenylamino)-5-chloropyrimidin-4-ylamino)phenyl)methanesulfonamide], the inhibition at 10 µM was 95.2% at CDK5, 95.8% on TBK1, 71.7% on LRRK2 and 90.9% on MAP2K3.
